Assay results taken from paper PMC11549994, “A dTDP-L-rhamnose 4-epimerase required for glycopeptidolipid biosynthesis in Mycobacterium abscessus” (The Journal of Biological Chemistry, 2024).
Read-outs that look alike come from different tables or passages of the source.

Legend:
[1] = test system: T1, M. abscessus CIP104536T (S); test: microbe, parasite or virus in culture; parameters: species or system Mycobacteroides abscessus CIP104536T; antibiotic susceptibility testing, MIC of drugs against M. abscessus strains; conditions: Mycobacteroides abscessus, read-out: MIC (µg/mL) (phenotypea) / S
T1 construct: CIP104536T smooth (S) morphotype
Experimental: (§1) M. abscessus CIP104536^T (S) and CIP104536^T (R) strains used in this study were previously sequenced and their genomic differences identified and characterized ([13], [60]). Mycobacteria were grown in Middlebrook 7H9 broth (BD) supplemented with 0.025% tyloxapol and 10% oleic acid-albumin-dextrose-catalase (OADC) enrichment (7H9^OADC) or on Middlebrook 7H10 agar (BD) containing 10% OADC (7H10^OADC) at 37 °C, with antibiotics when required. A Bio-Rad Gene pulser (25 μF, 2500 V, 800 Ω) was used to transform electrocompetent mycobacteria. After transformation, strains carrying the pMV306 ([48]) derivatives were selected on 250 μg/ml kanamycin.

[2] = test system: T2, M. abscessus CIP104536T (R); test: microbe, parasite or virus in culture; parameters: species or system Mycobacteroides abscessus CIP104536T; antibiotic susceptibility testing, MIC of drugs against M. abscessus strains; conditions: Mycobacteroides abscessus, read-out: MIC (µg/mL) (phenotypea) / R
T2 construct: CIP104536T rough (R) morphotype
Experimental: as §1

[3] = test system: T2, M. abscessus CIP104536T (R); test: microbe, parasite or virus in culture; parameters: species or system Mycobacteroides abscessus CIP104536T; antibiotic susceptibility testing, MIC of drugs against M. abscessus strains; conditions: Mycobacteroides abscessus, read-out: MIC (µg/mL) (phenotypea) / R; remark: listed apart in the source
Experimental: as §1

[4] = test system: T1, M. abscessus CIP104536T (S); test: microbe, parasite or virus in culture; parameters: species or system Mycobacteroides abscessus CIP104536T; antibiotic susceptibility testing, MIC of drugs against M. abscessus strains; conditions: Mycobacteroides abscessus, read-out: MIC (µg/mL) (phenotypea) / S; remark: listed apart in the source
Experimental: as §1

MAB_4111c (Tle) = molecular target: T3, MAB_4111c (Tle) (Mycobacteroides abscessus, UniProt B1MIG3); test: reverse reaction, formation of dTDP-Rha (data not shown); assay type: biochemical; conditions: 60 min, also the product of the forward reaction, partially purified Ni-bead fraction
T3 construct: full-length, 353 residues, six-histidine tag from pET30 (kept), expressed in E. coli BL21 Star DE3; partially purified Ni-bead-enriched fraction
T3 sequence (B1MIG3 entry or part of it): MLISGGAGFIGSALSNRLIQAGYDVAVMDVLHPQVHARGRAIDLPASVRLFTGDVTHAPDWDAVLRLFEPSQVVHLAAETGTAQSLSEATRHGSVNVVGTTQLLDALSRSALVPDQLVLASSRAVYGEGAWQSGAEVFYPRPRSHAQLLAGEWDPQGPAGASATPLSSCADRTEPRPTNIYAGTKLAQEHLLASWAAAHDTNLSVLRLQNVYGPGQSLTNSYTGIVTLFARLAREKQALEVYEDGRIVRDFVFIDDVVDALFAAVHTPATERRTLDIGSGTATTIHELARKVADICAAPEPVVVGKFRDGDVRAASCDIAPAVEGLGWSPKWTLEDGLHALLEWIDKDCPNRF

SMILES	MIC [1]	MIC [2]	MIC [3]	MIC [4]	reverse reaction, formation of dTDP-Rha (data not shown) (MAB_4111c (Tle))
NCC[C@H](O)C(=O)N[C@@H]1C[C@H](N)[C@@H](O[C@H]2O[C@H](CN)[C@@H](O)[C@H](O)[C@H]2O)[C@H](O)[C@H]1O[C@H]1O[C@H](CO)[C@@H](O)[C@H](N)[C@H]1O [Amikacin]	16 µg/mL	32 µg/mL	–	–	–
CO/N=C(\C(=O)N[C@@H]1C(=O)N2C(C(=O)[O-])=C(C[N+]3(C)CCCC3)CS[C@H]12)c1csc(N)n1 [Cefepime]	> 32 µg/mL	> 32 µg/mL	–	–	–
CO[C@@]1(NC(=O)Cc2cccs2)C(=O)N2C(C(=O)O)=C(COC(N)=O)CS[C@@H]21 [Cefoxitin]	64 µg/mL	128 µg/mL	–	–	–
CO/N=C(\C(=O)N[C@@H]1C(=O)N2C(C(=O)O)=C(CSc3nc(=O)c(O)nn3C)CS[C@H]12)c1csc(N)n1 [Ceftriaxone]	> 64 µg/mL	> 64 µg/mL	–	–	–
CC[C@H]1OC(=O)[C@H](C)[C@@H](O[C@H]2C[C@@](C)(OC)[C@@H](O)[C@H](C)O2)[C@H](C)[C@@H](O[C@@H]2O[C@H](C)C[C@H](N(C)C)[C@H]2O)[C@](C)(OC)C[C@@H](C)C(=O)[C@H](C)[C@@H](O)[C@]1(C)O [Clarithromycin]	8 µg/mL	4 µg/mL	> 16 µg/mL	> 16 µg/mL	–
C[C@H]1c2cccc(O)c2C(=O)C2=C(O)[C@]3(O)C(=O)C(C(N)=O)=C(O)[C@@H](N(C)C)[C@@H]3[C@@H](O)[C@@H]21 [Doxycycline]	> 16 µg/mL	> 16 µg/mL	–	–	–
C[C@@H](O)[C@H]1C(=O)N2C(C(=O)O)=C(SCCNC=N)C[C@H]12 [Imipenem]	64 µg/mL	64 µg/mL	–	–	–
CC(=O)NC[C@H]1CN(c2ccc(N3CCOCC3)c(F)c2)C(=O)O1 [Linezolid]	32 µg/mL	32 µg/mL	–	–	–
CN(C)c1ccc(O)c2c1C[C@H]1C[C@H]3[C@H](N(C)C)C(O)=C(C(N)=O)C(=O)[C@@]3(O)C(O)=C1C2=O [Minocycline]	> 8 µg/mL	> 8 µg/mL	–	–	–
COc1c(N2C[C@@H]3CCCN[C@@H]3C2)c(F)cc2c(=O)c(C(=O)O)cn(C3CC3)c12 [Moxifloxacin]	> 8 µg/mL	> 8 µg/mL	–	–	–
CO[C@H]1/C=C/O[C@@]2(C)Oc3c(C)c(O)c4c(c3C2=O)C2=NC3(CCN(CC(C)C)CC3)NC2=C(NC(=O)/C(C)=C\C=C\[C@H](C)[C@H](O)[C@@H](C)[C@@H](O)[C@@H](C)[C@H](OC(C)=O)[C@@H]1C)C4=O [Rifabutin]	64 µg/mL	16 µg/mL	–	–	–
CN(C)c1cc(NC(=O)CNC(C)(C)C)c(O)c2c1C[C@H]1C[C@H]3[C@H](N(C)C)C(O)=C(C(N)=O)C(=O)[C@@]3(O)C(O)=C1C2=O [Tigecycline]	0.5 µg/mL	1 µg/mL	–	–	–
NC[C@H]1O[C@H](O[C@H]2[C@H](O)[C@@H](O[C@H]3O[C@H](CO)[C@@H](O)[C@H](N)[C@H]3O)[C@H](N)C[C@@H]2N)[C@H](N)C[C@@H]1O [Tobramycin]	16 µg/mL	16 µg/mL	–	–	–
Cc1cn([C@H]2C[C@H](O)[C@@H](COP(=O)(O)OP(=O)(O)O[C@H]3O[C@@H](C)[C@@H](O)[C@@H](O)[C@H]3O)O2)c(=O)[nH]c1=O [dTDP-6-d-Tal]	–	–	–	–	reverse reaction using dTDP-6-d-Tal as a substrate and observed the formation of dTDP-Rha
